# Reference: patent publication US7709645B2, “Pyrrolo-pyridine kinase modulators” (SGX Pharmaceuticals, Inc., priority 2004, dated 2010)
# Test system: Ba/F3-T315I cells
# Assay: Ba/F3-T315I XTT Assay (cell survival)
# Type: cell-based
# Details: 72 hours
# Procedure: MV4-11 and THP cells were maintained in Iscove's Modified Dulbecco's Medium supplemented with 10% fetal bovine serum (FBS) and penicillin/streptomycin, Ba/F3 cells were maintained in RPMI 1640 supplemented with 10% FBS, penicillin/streptomycin and 5 ng/ml recombinant mouse IL-3.
# Compounds were tested in the following assays in duplicate.
# 96-well XTT assay: Cells (e.g. BaF3 315I, M351I, or E255K cells) were grown in growth media containing various concentrations of compounds (duplicates) on a 96-well plate for 72 hours at 37° C. The starting cell number was 5000-8000 cells per well and volume was 120 μl. At the end of the 72-hour incubation, 40 μl of XTT labeling mixture (50:1 solution of sodium 3′-[1-(phenylamino-carbonyl)-3,4-tetrazolium]-bis(4-methoxy-6-nitro) benzene sulfonic acid hydrate and Electron-coupling reagent: PMS (N-methyl dibenzopyrazine methyl sulfate) were added to each well of the plate. After an additional 2-6 hours of incubation at 37° C., the absorbance reading at 405 nm with background correction at 650 nm was measured with a spectrophotometer.
row,SMILES,IC50
1,COc1ccccc1-c1c[nH]c2ncc(-c3ccc4[nH]cc(CC(=O)O)c4c3)cc12 [AE10],< 100 nM

# Molecular target: T1, Autophosphorylated AurA kinase (Homo sapiens, UniProt O14965)
# T1 construct: made in house; host or cells: Sf9 insect cells
# T1 sequence (O14965 1-403): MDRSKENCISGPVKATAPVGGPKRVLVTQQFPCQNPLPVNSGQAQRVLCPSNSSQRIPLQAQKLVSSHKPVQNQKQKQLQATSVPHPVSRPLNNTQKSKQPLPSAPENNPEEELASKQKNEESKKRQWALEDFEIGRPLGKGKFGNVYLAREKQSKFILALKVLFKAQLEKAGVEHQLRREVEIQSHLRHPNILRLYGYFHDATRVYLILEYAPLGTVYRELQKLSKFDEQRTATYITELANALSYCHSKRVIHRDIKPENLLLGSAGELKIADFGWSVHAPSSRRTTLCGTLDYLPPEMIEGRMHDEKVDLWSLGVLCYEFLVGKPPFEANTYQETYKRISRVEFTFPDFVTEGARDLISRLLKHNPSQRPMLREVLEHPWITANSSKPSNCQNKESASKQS
# Assay: AurA Bioassay (luminescence-based enzyme assay, Kinase-Glo)
# Type: biochemical
# Details: 10 μM ATP
# Description: In addition to the c-Abl PK/LDH coupled assay (above), homogeneous luminescence-based inhibitor screening assays were developed for c-Abl, MET, AurA, and PDK1 kinases (among others). Each of these assays made use of an ATP depletion assay (Kinase-Glo™, Promega Corporation, Madison, Wis.) to quantitate kinase activity. The Kinase-Glo™ format uses a thermostable luciferase to generate luminescent signal from ATP remaining in solution following the kinase reaction. The luminescent signal is inversely correlated with the amount of kinase activity.
# Materials: Kemptide peptide substrate=LRRASLG (SEQ ID NO:2) (Biopeptide, San Diego, Calif.), ATP (Sigma Cat#A-3377, FW=551), HEPES buffer, pH 7.5, 10% Brij 35 (Calbiochem Cat#203728), MgCl2, Staurosporine (Streptomyces sp. Sigma Cat#85660-1MG), white Costar 384-well flat bottom plate (VWR Cat#29444-088), Autophosphorylated AurA kinase (see below), Kinase-Glo™ (Promega Cat#V6712).
# Stock Solutions: 10 mM Kemptide peptide (7.72 mg/ml in water), stored at −20° C.; 100 mM HEPES buffer+0.015% Brij 35, pH 7.5 (5 ml 1M HEPES stock+75 μL 10% Brij 35+45 ml miliQH2O); 10 mM ATP (5.51 mg/ml in dH2O) stored at −20° C. (diluted 50 μl into total of 10 ml miliQH2O daily=50 μM ATP working stock); 100 mM MgCl2; […] Staurosporine, 2× Kinase-Glo™ reagent (made fresh or stored at −20° C.).
# AurA Autophosphorylation Reaction: ATP and MgCl2 were added to 1-5 mg/ml AurA at final concentrations of 10 mM and 100 mM, respectively. The autophosphorylation reaction was incubated at 21° C. for 2-3 h. The reaction was stopped by the addition of EDTA to a final concentration of 50 mM, and samples were flash frozen with liquid N2 and stored at −80° C.
# Standard Assay Setup for 384-well format (20 μl kinase reaction, 40 μl detection reaction): 10 mM MgCl2; 0.2 mM Kemptide peptide; […] test compound (in DMSO); 0.3 μg/ml Autophosphorylated AurA kinase; 10 μM ATP; 100 mM HEPES+0.015% Brij buffer. Positive controls contained DMSO with no test compound. Negative controls contained 5 μM staurosporine. The kinase reactions were initiated at time t=0 by the addition of ATP. Kinase reactions were incubated at 21° C. for 45 min, then 20 μl of Kinase-Glo™ reagent were added to each well to quench the kinase reaction and initiate the luminescence reaction. After a 20 min incubation at 21° C., the luminescence was detected in a plate-reading luminometer.
# The Sf9 insect cell pellets (˜18 g) produced from 6 L of cultured cells expressing human Aurora-2 were resuspended in 50 mM Na Phosphate pH 8.0, 500 mM NaCl, 10% glycerol, 0.2% n-octyl-β-D-glucopyranoside (BOG) and 3 mM β-Mercaptoethanol (BME). One tablet of Roche Complete, EDTA-free protease inhibitor cocktail (Cat# 1873580) and 85 units Benzonase (Novagen Cat#70746-3)) were added per 1 L of original culture. Pellets were resuspended in approximately 50 ml per 1 L of original culture and were then sonicated on ice with two 30-45 sec bursts (100% duty cycle). Debris was removed by centrifugation and the supernatant was passed through a 0.8 μm syringe filter before being loaded onto a 5 ml Ni^2+ HiTrap column (Pharmacia). The column was washed with 6 column volumes of 50 mM Na Phosphate pH 8.0, 500 mM NaCl, 10% glycerol, 3 mM BME. The protein was eluted using a linear gradient of the same buffer containing 500 mM Imidazole. The eluant (24 ml) was cleaved overnight at 4° C. in a buffer containing 50 mM Na Phosphate pH 8.0, 500 mM NaCl, 10% glycerol, 3 mM BME and 10,000 units of TEV (Invitrogen Cat# 10127-017). […]
row,SMILES,IC50
1,CNC(=O)c1cncc(-c2cnc3[nH]cc(-c4ccccc4OC)c3c2)c1 [AE1],500 to 5000 nM
2,COc1ccccc1-c1c[nH]c2ncc(-c3cccc(S(C)(=O)=O)c3)cc12 [AE13],500 to 5000 nM
3,COc1ccccc1-c1c[nH]c2ncc(-c3ccc[nH]3)cc12 [AE67],500 to 5000 nM
4,COc1ccccc1-c1c[nH]c2ncc(-c3ccc(S(N)(=O)=O)s3)cc12 [AE11],500 to 5000 nM
5,COCCOc1ccc(-c2cnc3[nH]cc(-c4ccccc4OC)c3c2)cc1OCCOC [AE68],500 to 5000 nM
